Measured values published in ChEMBL document CHEMBL3271973, “Synthesis and biological activities of 5-trifluoromethyl-5'-azido-2',5'-dideoxyuridine and 5-trifluoromethyl-5'-amino-2',5'-dideoxyuridine” (J Med Chem, 1976).
Calls of active or inactive are those of the source. The calls are words filed in the database; no cut-off is given here.

Key:
[1] = Antiviral activity against HSV1 CL-101 infected in African green monkey Vero cells assessed as reduction of viral titer at 200 uM after 40 hrs; assay type: functional, Herpes simplex virus (type 1 / strain CL101)
[2] = Therapeutic index, ratio of cytotoxicity against African green monkey Vero cells to antiviral activity against HSV1 CL-101; assay type: cell-based; details: read-out: TI
[3] = tested on: Sarcoma-180; assay: Cytotoxicity against mouse Sarcoma 180 cells after 1 to 3 days by coulter counter analysis; assay type: functional, cell-based
[4] = Antiviral activity against HSV1 CL-101 infected in African green monkey Vero cells assessed as reduction of viral titer at 50 uM after 40 hrs; assay type: functional, Herpes simplex virus (type 1 / strain CL101)
[5] = tested on: Vero; assay: Cytotoxicity against African green monkey Vero cells at 1 uM after 3 days by haemocytometer analysis; assay type: cell-based; details: chlorocebus sabaeus, 72 h

SMILES | Activity [1] | selectivity ratio [2] | Activity [3] | Activity [4] | Activity [5]
NC[C@H]1O[C@@H](n2cc(C(F)(F)F)c(=O)[nH]c2=O)C[C@@H]1O | 1 ×10⁵ PFU | 10 | Active |  | 
O=c1[nH]c(=O)n([C@H]2C[C@H](O)[C@@H](CO)O2)cc1C(F)(F)F [TRIFLURIDINE] |  |  | Active | 1.5 ×10⁵ PFU | Toxic
[N-]=[N+]=NC[C@H]1O[C@@H](n2cc(C(F)(F)F)c(=O)[nH]c2=O)C[C@@H]1O | 1.7 ×10⁶ PFU |  | Active |  | 
